Data taken from the supplement of paper PMC7840683.

System: HepaRG
Experiment: LDH release cytotoxicity, % of total lysis control; higher = more cytotoxic
Details: 48 h
In short: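 Percent cytotoxicity was scaled between on-plate vehicle and total lysis controls, then averaged over duplicate wells. The cells were single-lot HepaRG on collagen I-coated 96-well plates, exposed for 48 h to eight-point half-log test chemical series topping at 100 µM in serum-free induction medium with 0.5% DMSO. Total lysis wells got 0.1% Triton X, and LDH in 50 µL spent medium was read as resorufin fluorescence (CytoTox-ONE, Tecan Safire).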

ClCC(Cl)CCl [1,2,3-Trichloropropane]
Details | LDH release cytotoxicity [%]
0.03162 µM | -1.72
0.1 µM | -1.57
0.3162278 µM | -1.6
1 µM | -0.683
3.16228 µM | -0.233
10 µM | -1.91
31.6228 µM | -1.01
100 µM | 0.236

C1=Cc2cccc3cccc1c23 [Acenaphthylene]
Details | LDH release cytotoxicity [%]
0.031623 µM | -0.662
0.1 µM | -2.98
0.316228 µM | -2.7
1 µM | -2.28
3.16228 µM | -2.7
10 µM | -2.757
31.6228 µM | -1.56
100 µM | 1

Cc1cc2c(cc1C(F)(F)F)N(C(=O)Nc1ccc(Oc3cccnc3C)nc1)CC2
Details | LDH release cytotoxicity [%]
0.0295673 µM | -7.63
0.0935 µM | -7.9
0.295673 µM | -7.01
0.935 µM | -8.47
2.95673 µM | -7.66
9.35 µM | -6.19
29.5673 µM | 68.937
93.5 µM | 72.5

CC1OC=CC(=O)C1=O (configuration not stated) [Maltol]
Details | LDH release cytotoxicity [%]
0.032888 µM | -1.82
0.104 µM | -1.46
0.328877 µM | -2.18
1.04 µM | -3.62
3.28877 µM | -2.64
10.4 µM | -1.92
32.8877 µM | -1.627
104 µM | 0.353

CC1(c2ccc(Oc3ccccc3)cc2)OC(=O)N(Nc2ccccc2)C1=O (configuration not stated) [Famoxadone]
Details | LDH release cytotoxicity [%]
0.0317809 µM | -0.255
0.1005 µM | -1.03
0.317809 µM | -0.879
1.005 µM | -1.52
3.17809 µM | -2.56
10.05 µM | 10.7
31.7809 µM | 18.1
100.5 µM | 64.5

c1ccc2cc3ccccc3cc2c1 [Anthracene]
Details | LDH release cytotoxicity [%]
0.031623 µM | -2.31
0.1 µM | -2.92
0.316228 µM | -3.34
1 µM | -2.01
3.16228 µM | -2.51
10 µM | -2.69
31.6228 µM | -1.53
100 µM | 2.42

Nc1ccc(S(=O)(=O)c2ccc(N)cc2)cc1 [Dapsone]
Details | LDH release cytotoxicity [%]
0.03162 µM | -1.24
0.1 µM | -0.379
0.3162278 µM | -1.16
1 µM | -0.536
3.16228 µM | 0.1
10 µM | -0.392
31.6228 µM | 0.105
100 µM | 1.63

Cc1ccc(-c2cc(C(F)(F)F)nn2-c2ccc(S(N)(=O)=O)cc2)cc1 [Celecoxib]
Details | LDH release cytotoxicity [%]
0.03162 µM | -1.06
0.1 µM | -0.435
0.3162278 µM | -0.88
1 µM | -1.96
3.16228 µM | -1.21
10 µM | -0.583
31.6228 µM | 3.13
100 µM | 89.34

CCC(C)(C)c1ccc(O)cc1 [4-(2-Methylbutan-2-yl)phenol]
Details | LDH release cytotoxicity [%]
0.03162 µM | -0.822
0.1 µM | -1.57
0.3162278 µM | -1.05
1 µM | -1.22
3.16228 µM | -1.65
10 µM | -0.249
31.6228 µM | -1.75
100 µM | 0.707

Cc1ccc(C)c(O)c1C [2,3,6-Trimethylphenol]
Details | LDH release cytotoxicity [%]
0.03162 µM | -2.75
0.1 µM | -1.45
0.3162278 µM | -1.53
1 µM | -1.64
3.16228 µM | -1.22
10 µM | -0.829
31.6228 µM | -0.517
100 µM | 0.375

COC(=O)C(C)Oc1ccc(Oc2ccc(Cl)cc2Cl)cc1 (racemic) [Methyl (RS)-2-[4-(2,4-dichlorophenoxy)phenoxy]propionate]
Details | LDH release cytotoxicity [%]
0.03162 µM | -0.971
0.1 µM | -1.59
0.3162278 µM | -1.59
1 µM | -2.24
3.16228 µM | -1.38
10 µM | -1.28
31.6228 µM | -1.8
100 µM | -0.104

CCCCCC(=O)O [Hexanoic acid]
Details | LDH release cytotoxicity [%]
0.03162 µM | -2.52
0.1 µM | -1.97
0.3162278 µM | -0.0407
1 µM | -1.44
3.16228 µM | -1.32
10 µM | -1.49
31.6228 µM | -0.358
100 µM | 0.23

CCNc1cccc(C)c1 [N-Ethyl-3-methylaniline]
Details | LDH release cytotoxicity [%]
0.03162 µM | -1.25
0.1 µM | -0.734
0.3162278 µM | -1.13
1 µM | -0.866
3.16228 µM | -0.912
10 µM | -0.509
31.6228 µM | -0.424
100 µM | 1.66

CC(Oc1ccc(Cl)cc1Cl)C(=O)O (configuration not stated) [Dichlorprop]
Details | LDH release cytotoxicity [%]
0.03162 µM | -0.461
0.1 µM | -0.49
0.3162278 µM | -0.517
1 µM | 0.354
3.16228 µM | 0.35
10 µM | 0.358
31.6228 µM | 0.57
100 µM | 1.75

COC(=O)C1C2CC3c4[nH]c5cc(OC)ccc5c4CCN3CC2CC(OC(=O)c2cc(OC)c(OC)c(OC)c2)C1OC (configuration not stated) [Reserpine]
Details | LDH release cytotoxicity [%]
0.0267212 µM | -2.17
0.0845 µM | -2.63
0.267213 µM | -1.99
0.845 µM | -3.03
2.67212 µM | -1.69
8.45 µM | -1.52
26.7212 µM | 10.5
84.5 µM | 46.8

Cc1cccc(N)c1 [3-Methylaniline]
Details | LDH release cytotoxicity [%]
0.03162 µM | -1.1
0.1 µM | -0.218
0.3162278 µM | -1
1 µM | -0.834
3.16228 µM | -0.813
10 µM | 0.339
31.6228 µM | 0.0207
100 µM | 1.94

CCC(C)N1C(=O)N=C(C)C(Br)C1=O (configuration not stated) [Bromacil]
Details | LDH release cytotoxicity [%]
0.031623 µM | -0.635
0.1 µM | -3.85
0.316228 µM | -3.85
1 µM | -3.54
3.16228 µM | -3.65
10 µM | -2.46
31.6228 µM | 0.888
100 µM | 5.41

C=CCOC(Cn1ccnc1)c1ccc(Cl)cc1Cl (configuration not stated) [Imazalil]
Details | LDH release cytotoxicity [%]
0.03162 µM | -1.02
0.1 µM | -0.85
0.3162278 µM | -0.00888
1 µM | -0.601
3.16228 µM | -0.652
10 µM | 0.29
31.6228 µM | 8.422
100 µM | 69.6

CCC(C)OC(=O)N1CCCCC1CCO (configuration not stated) [Icaridin]
Details | LDH release cytotoxicity [%]
0.03162 µM | 6.64
0.1 µM | 4.72
0.3162278 µM | 4.33
1 µM | 5.97
3.16228 µM | 5.34
10 µM | 2.82
31.6228 µM | 8.294
100 µM | 9.41
